This assay relates to 292921-168-R-J2-PDC KRAS tumor spheroid viability. Description: Anticancer human tumor 292921-168-R-J2-PDC patient-derived pancreatic carcinoma cell line growth inhibition [KRAS2]. The note with it: spheroids with HUVEC and MSC; for viability, T/C: stronger effect = lower value. In a few lines:
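Combination screen of spheroid viability in tumor-cell co-cultures with endothelial (HUVEC) and mesenchymal stem cell stroma. Each agent was tested in half-log dilutions, topping at clinical Cmax or at 10 microM without a known Cmax.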

The mark [1] stands for this setting: curve of first compound, second compound 0.1 µM.
[2] abbreviates: curve of first compound, second compound 0.316 µM.
[3] abbreviates: curve of first compound, second compound 1 µM.
Where [4] appears, read: curve of first compound, second compound 3.16 µM.
The mark [5] stands for this setting: curve of first compound, second compound 10 µM.
The mark [6] stands for this setting: second compound 0.1 µM, first compound 0.0316 µM.
The mark [7] stands for this setting: second compound 0.1 µM, first compound 0.1 µM.
Where [8] appears, read: second compound 0.316 µM, first compound 0.0316 µM.
Where [9] appears, read: second compound 0.316 µM, first compound 0.1 µM.
[10] abbreviates: second compound 1 µM, first compound 0.0316 µM.
[11] abbreviates: second compound 1 µM, first compound 0.1 µM.
[12] abbreviates: second compound 3.16 µM, first compound 0.0316 µM.
Where [13] appears, read: second compound 3.16 µM, first compound 0.1 µM.
[14] abbreviates: second compound 10 µM, first compound 0.0316 µM.
The mark [15] stands for this setting: second compound 10 µM, first compound 0.1 µM.

Molecules are shown by their SMILES. Where “and” joins values, the source holds several entries; their conditions need not be identical. Equal entries are not always repeated. Bounds are passed on as bounds.

One may read the IC50 as the concentration needed to halve the response being measured. The viability, T/C is the ratio of treated to control.
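Also: drug exposure lasted seven days after spheroids formed for three days.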
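For viability, T/C in this document: percent of DMSO vehicle control viability which is 100%.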

For the compound `COc1cc2nccc(Oc3ccc(NC(=O)C4(C(=O)Nc5ccc(F)cc5)CC4)cc3)c2cc1OC` + C=CC(=O)N1CCN(c2nc(=O)n(-c3c(C)ccnc3C(C)C)c3nc(-c4c(O)cccc4F)c(F)cc23)C(C)C1, the IC50 is 1960 nM under setting [1]; 2000 nM under setting [2]; 1680 nM under setting [3]; 822 nM under setting [4]; below 31.6 nM under setting [5]. The viability, T/C runs as follows: under setting [6], 102%; under setting [7], 102%; (second compound 0.1 µM, first compound 0.316 µM) 103%; (second compound 0.1 µM, first compound 1 µM) 79.6%; (second compound 0.1 µM, first compound 3.16 µM) 28.9%; (second compound 0.1 µM, first compound 10 µM) 18.6%. The viability, T/C under setting [8] is 122%; the viability, T/C under setting [9] is 112%; the viability, T/C (second compound 0.316 µM, first compound 0.316 µM) was 102%; the viability, T/C (second compound 0.316 µM, first compound 1 µM) is 77%; the viability, T/C (second compound 0.316 µM, first compound 3.16 µM) was 30.9%; the viability, T/C (second compound 0.316 µM, first compound 10 µM) is 19.8%. Also, the viability, T/C under setting [10] is 111%; the viability, T/C under setting [11] was 108%; the viability, T/C (second compound 1 µM, first compound 0.316 µM) is 96.3%; the viability, T/C (second compound 1 µM, first compound 1 µM) is 69.3%; the viability, T/C (second compound 1 µM, first compound 3.16 µM) was 27%; the viability, T/C (second compound 1 µM, first compound 10 µM) is 17.2%. Further, the viability, T/C was 74.1% under setting [12]; 77.6% under setting [13]; 62.9% (second compound 3.16 µM, first compound 0.316 µM); 49.6% (second compound 3.16 µM, first compound 1 µM); 18.9% (second compound 3.16 µM, first compound 3.16 µM); 14% (second compound 3.16 µM, first compound 10 µM). Also, the viability, T/C reads like this: under setting [14], 18.9%; under setting [15], 25.4%; (second compound 10 µM, first compound 0.316 µM) 15.7%; (second compound 10 µM, first compound 1 µM) 22.5%; (second compound 10 µM, first compound 3.16 µM) 11.1%; (second compound 10 µM, first compound 10 µM) 6.69%.
Consider `CCNC(=O)CC1N=C(c2ccc(Cl)cc2)c2cc(OC)ccc2-n2c(C)nnc21` (centres undefined), for which the viability, T/C by setting is: (compound 0.0316 µM) 97.6% and 105% (2×); (compound 0.1 µM) 101% and 90.5% and 99.3%; (compound 0.316 µM) 68.9% and 65.5% and 77.4%; (compound 1 µM) 61.3% and 61.7% and 65.3%; (compound 3.16 µM) 55.7% and 53.3% and 49.1%; (compound 10 µM) 47.1% and 38.7% and 48.1%. The IC50 (curve of compound) is > 10000 nM and 2930 nM and 4760 nM.
For `CN(C)C/C=C/C(=O)Nc1cc2c(Nc3ccc(F)c(Cl)c3)ncnc2cc1O[C@H]1CCOC1` + CNCc1ccccc1-c1csc(C(C)Nc2nc(C)nc3cc(OC)c(OC)cc23)c1, the IC50 by setting is: under setting [1], above 100 nM; under setting [2], above 100 nM; under setting [3], 48.9 nM; under setting [4], 1.93 nM; under setting [5], below 0.316 nM. Moreover, the viability, T/C was 90.9% (second compound 0.1 µM, first compound 0.000316 µM); 86.3% (second compound 0.1 µM, first compound 0.001 µM); 72.4% (second compound 0.1 µM, first compound 0.00316 µM); 70.3% (second compound 0.1 µM, first compound 0.01 µM); 64.5% under setting [6]; 57.5% under setting [7]. For the same compound, the viability, T/C (second compound 0.316 µM, first compound 0.000316 µM) was 82.4%; the viability, T/C (second compound 0.316 µM, first compound 0.001 µM) is 80.6%; the viability, T/C (second compound 0.316 µM, first compound 0.00316 µM) is 70.6%; the viability, T/C (second compound 0.316 µM, first compound 0.01 µM) was 71.1%; the viability, T/C under setting [8] is 58%; the viability, T/C under setting [9] was 55%. Moreover, the viability, T/C is 74.4% (second compound 1 µM, first compound 0.000316 µM); 62% (second compound 1 µM, first compound 0.001 µM); 60% (second compound 1 µM, first compound 0.00316 µM); 59.6% (second compound 1 µM, first compound 0.01 µM); 56.1% under setting [10]; 43.7% under setting [11]. Besides, the viability, T/C (second compound 3.16 µM, first compound 0.000316 µM) was 105%; the viability, T/C (second compound 3.16 µM, first compound 0.001 µM) is 91.1%; the viability, T/C (second compound 3.16 µM, first compound 0.00316 µM) is 0.17%; the viability, T/C (second compound 3.16 µM, first compound 0.01 µM) was 0.11%; the viability, T/C under setting [12] is 74.7%; the viability, T/C under setting [13] was 1.26%. Further, the viability, T/C is 0.13% (second compound 10 µM, first compound 0.000316 µM); 0.13% (second compound 10 µM, first compound 0.001 µM); 0.09% (second compound 10 µM, first compound 0.00316 µM); 0.08% (second compound 10 µM, first compound 0.01 µM); 0.13% under setting [14]; 0.17% under setting [15].
For `CC(=O)Nc1cccc(-n2c(=O)n(C3CC3)c(=O)c3c(Nc4ccc(I)cc4F)n(C)c(=O)c(C)c32)c1`, the viability, T/C was 73.6% [middle of 5 runs] (compound 0.0001 µM); 51.5% [middle of 5 runs] (compound 0.000316 µM); 28.9% [middle of 5 runs] (compound 0.001 µM); 17.8% [middle of 5 runs] (compound 0.00316 µM); 12.7% [middle of 5 runs] (compound 0.01 µM); 8.87% [middle of 4 runs] (compound 0.0316 µM). In addition, for the setting “curve of compound”, the IC50 was 0.328 nM [middle of 5 runs].

The values are drawn from PubChem BioAssay AID1963870 (Molecular Pharmacology Branch, DTP, NCI, 2024).
